According to US20100197765A1, “METHOD FOR PROMOTING THE EXPRESSION OF P53, AND P53 EXPRESSION PROMOTER FOR USE IN THE METHOD” (THE UNIVERSITY OF TOKUSHIMA, priority 2007, published 2010):

What was measured:
Assay type in all cases: cell-based, human
[1] = tested on: parent cells HCT116; assay: apoptosis (TUNEL) in parental HCT116 cells with vegf siRNA and 5-FU; conditions: parent cells HCT116, siRNA expressed and 80 mmol/L of 5-FU, 60 hours
Description: Apoptotic cells were evaluated by a TUNEL staining method using in situ Cell Death Detection kit (Roche Diagnostic). […] The counting was performed with respect to at least 300 cells in one measurement.
Various types of cells were treated with 5-FU, which is an anticancer agent inducing apoptosis in a p53-dependent manner, and the sensitivity to apoptosis was analyzed. The vegf siRNA#1 vectors expressing siRNA#1, the vegf siRNA #2 vectors expressing siRNA #2, and the control siRNA vectors described above respectively were transfected into HCT 116 (parent cells) and p53-deleted cells HCT116. Then, the cells after 18 hours from the transfection was treated for 60 hours in the presence of […] of 5-FU (+) or in the absence of 5-FU (−). The proportion (%) of apoptosis positive cells in the thus-treated cells was calculated based on “Apoptotic evaluation 2” above (means±SD, n=4).

[2] = tested on: HCT116 cells; assay: apoptosis of siRNA-expressing HCT116 cells treated with low-concentration anticancer agents, with or without rVEGF; conditions: for enhancement of apoptosis when cells were treated with rVEGF protein: HCT116, 1 ng/ml rVEGF plus anticancer agents; for apoptosis by treatments with anticancer agents of low concentrations: HCT116, etoposide 20 μmol/L, doxorubicin 170 nmol/L, 5-FU 40 μmol/L, 60 hours, vs untreated
Description: The recombinant vectors that express vegf siRNA#1 and #2 and the vectors that express control siRNA were transfected into HCT116 cells (parent cells, wild-type p53). As a control cell, an HCT116 cell not transfected with a recombinant vector that expresses siRNA was used. These four types of cells were treated in the presence or absence of various anticancer agents having the final concentrations as described below for 60 hours. As the anticancer agent, etoposide (20 μmol/L), doxorubicin (170 nmol/L), and 5-FU (40 μmol/L) were used. With respect to the treated cells, apoptosis (%) was quantified in the same manner as in Example A1.
UTR RNA and function of VEGF protein. With the aim of clarifying an effect of blocking the function of vegf 5′ UTR RNA, recombinant VEGF protein (R&D systems, hereinafter referred to as “rVEGF”) was added to a culture supernatant of cells transfected with vegf siRNA in order to add VEGF protein that is decreased due to siRNA. […] Therefore, in Example A9, 1 ng/ml of rVEGF protein was added to the four types of cells. […] Then, these transfection cells were treated with anticancer agents in the same manner as described above.

[3] = tested on: p53; assay: endogenous p53 mRNA (quantitative RT-PCR) and p53 protein (Western) in siRNA-transfected HCT116 cells
Description: From the results obtained in the above (1) and (2), it is interpreted that vegf IresRNA exerts an adverse influence in the p53 cancer suppression pathway. Thus, the expression level of endogenous p53 in cells transfected with vegf siRNA was examined. Specifically, the same transfected parent cells […] as in the above were treated for 8 hours in the presence of 80 lμmol/L of 5-FU (+) or in the absence of 5-FU (−), after which expression of p53 mRNA was analyzed by quantitative RT-PCR (means±SD, n=4). Also, the transfected cells were treated in the presence of 80 μmol/L of 5-FU (+) for a predetermined time (0, 8, 16, 24 hours), after which p53 protein was detected by the Western immunoblotting described above.

[4] = tested on: noxa mRNA, puma mRNA, and p21 mRNA; assay: expression of mRNAs induced in p53 pathways in HepG2 cells (Northern); conditions: HepG2, 5-FU 30 μmol/L, 16 hours
Description: In the same manner, HepG2 cells transfected with each type of the vectors were treated for 16 hours in the presence of 5-FU (30 μmol/L) (+) or the absence of 5-FU (−). With respect to the treated cells, expression of noxa mRNA, puma mRNA, and p21 mRNA induced in p53 pathways was analyzed by the Northern blotting. […] In FIG. 1D, the first row from the top indicates expression of noxa mRNA, the second row indicates expression of puma mRNA, the third row indicates expression of p21 mRNA, and the fourth row indicates expression of gapdh mRNA. Definitions of the lanes in FIG. 1D are the same as those of FIG. 1C.

[5] = tested on: bax mRNA and noxa mRNA; assay: bax and noxa mRNA by quantitative RT-PCR in siRNA-transfected HCT116 cells; conditions: HCT116, 5-FU 80 μmol/L, 24 hours, vs control
Description: Whether or not the increase in the 5-FU-induced expression of p53 mRNA caused by the knockdown of vegf IresRNA by vegf siRNA induces expression of mRNA of a bax gene or a noxa gene, which are both p53 target genes, was examined. Cells obtained by transfecting the same control siRNA vectors, vegf siRNA #1 vectors, or vegf siRNA #2 vectors as in the above into parent cells HCT116 were treated for 24 hours in the presence of 80 μmol/L of 5-FU (+) or in the absence of 5-FU (−). Thereafter, expressions of bax mRNA and noxa mRNA were analyzed by quantitative RT-PCR (means±SD, n=4).

[6] = tested on: vegf mRNA; assay: vegf mRNA by quantitative RT-PCR in siRNA-transfected HCT116 cells; conditions: HCT116, 18 hours after transfection, ratio to gapdh mRNA
Description: From 1 μg of total RNA, cDNA was synthesized using SuperScriptII RNaseH(−) reverse transcriptase (Invitrogen), and PCR was performed using primers for amplification-purpose nucleic sequences with the cDNA being a template. The amplification and the quantitative analysis of PCR products were performed using Applied Biosystems 7500 (Applied Biosystems) by the method recommended by the manufacturer.
Whether or not vegf siRNA promotes the apoptosis sensitivity of cells was examined. In the same manner as in Example A1 except that HCT116 cells (parent cells, wild-type p53) were used instead of the HepG2 cells (wild-type p53), the vegf siRNA #1 vectors expressing siRNA #1, the vegf siRNA #2 vectors expressing siRNA #2, and the control siRNA vectors described above were respectively transfected into the HCT116 cells (parent cells, wild-type p53). Then, with regard to the cells after 18 hours from the transfection, the expression levels of vegf mRNA and gapdh mRNA were analyzed by quantitative RT-PCR (means±SD, n=4) and the expression levels of vegf IresRNA and gapdh mRNA were analyzed by Northern blotting. Also, with regard to HCT116 cells not transfected with the above-described recombinant vectors, the analyses were conducted in the same manner. The quantitative RT-PCR was conducted in the same manner as in Example B1, except that a primer set for vegf mRNA was used.

[7] = HCT116, absence of 5-FU, vs control
[8] = HCT116, further treated with 5-FU 80 μmol/L, 8 hours
[9] = HCT116, further treated with 5-FU 80 μmol/L, up to 24 hours

Substance	proportion of apoptosis [1]	enhancement of apoptosis when cells were treated with rVEGF protein [2]	apoptosis by treatments with anticancer agents of low concentrations [2]	amount of the expressed p53 mRNA [3, 7]	amount of the expressed p53 mRNA [3, 8]	amount of the expressed p53 protein [3, 9]	amount of the expressed p53 protein ([3]; HCT116, vs control)	expression induction of noxa mRNA, puma mRNA, and p21 mRNA [4]	induction of the expressions of bax mRNA and noxa mRNA by 5-FU [5]	amount of the vegf mRNA expressed [6]
siRNA #1: siRNA against vegf mRNA, SEQ ID NO 3/4, antisense complementary to bases 1062-1082 in SEQ ID NO. 1; expressed from pcDNA6.2-GW/EmGFP-miR vector (sense GCAUUGGACUUGCCUUGCUNN; antisense AGCAAGGCAAGGCUCCAAUGCNN)	increased markedly	affected very little	enhanced markedly	increased	increased markedly	increased markedly	increased	enhanced markedly	promoted markedly	decreased markedly
siRNA #2: siRNA against vegf mRNA, SEQ ID NO 5/6, antisense complementary to bases 1067-1087 in SEQ ID NO. 1; vector-expressed (sense GGAGCCUUGUUGCUGCUCUNN; antisense AGAGCAGCAAGGCAAGGCUCCNN)	increased markedly	affected very little	enhanced markedly	increased	increased markedly	increased markedly	increased	enhanced markedly	promoted markedly	decreased markedly
